≈ marks a conversion by molar mass, not a printed value. Like-named read-outs stand apart in the source and are kept apart here.
How the values were obtained:
[1] = system: Two-Spotted Spider Mite; assay: Biological Method D: Foliar Insecticidal Activity Test, mite test; type: in vivo, Tetranychus urticae; parameters: key to LC50 TSM: I = inactive at concentration listed; conditions: Two-Spotted Spider Mite; for LC50: Tetranychus urticae
[2] = system: Mexican Bean Beetle; assay: Biological Method D: Foliar Insecticidal Activity Test, Mexican Bean Beetle test; type: in vivo, Epilachna varivestis; conditions: Epilachna varivestis, Mexican Bean Beetle
[3] = system: Boll Weevil; assay: Biological Method D: Foliar Insecticidal Activity Test, boll weevil test; type: in vivo, Anthonomous grandis; conditions: Boll Weevil, compounds a-r
[4] = system: Green Peach Aphid; assay: Biological Method D: Foliar Insecticidal Activity Test, aphid test; type: in vivo, Myzus persicae; parameters: key: I = inactive at concentration tested; conditions: compounds a-r
Experimental: (§1) Biological Method D: Foliar Insecticidal Activity Test
(§2) In evaluating the foliar insecticidal activity of the compounds of this invention against insects and mites, the following test procedures were employed.
(§3) Not all compounds were tested at each of the several concentrations stated above. Test concentrations of a compound were selected as those most likely to differentiate dose response of a particular compound toward a particular test insect.
(§4) Initial evaluations were made on one or more of the following pests:
(§5) For the aphid test, infested broccoli (Brassica oleracea italica var. DiCicco) leaves containing about 50 aphids were placed in a Petri dish lid on a moistened piece of cotton. The leaves were then sprayed to thorough wetness with the test solution using a rotating turntable, held for twenty-four hours and then the percentage killed was determined.
(§6) The mortalities obtained in this manner were plotted on logarithmic probability paper.
(§7) The rotating turntable consists of a fixed, continuously operating spray nozzle under which targets are rotated at a fixed speed and distance. If the target is a Petri dish (such as for the bean beetle, armyworm, mite, or aphid tests), the distance from the nozzle is 38.1 cm (15 inches). If the target is a Mason jar (such as for the boll weevil test), the distance from the nozzle is 17.8 cm (7 inches). The nozzle is located 8 inches from the rotating shaft. The targets on individual platforms revolve around the shaft at 1 revolution per 20 seconds but only a brief portion of this time occurs in the spray path. Targets pass only once under the nozzle and then are removed to drying hoods.
(§8) The nozzle used is a 1/4 JCO Spraying Systems (Wheaton, Illinois) air atomizing nozzle equipped with a No. 2850 fluid cap and a No. 70 air cap. At the 68.95 x 10³ Pa gauge (10 psig) air pressure used and with liquid siphon feed, 1.89 ℓ/hr [0.5 GPH (gallons per hour)] are delivered in a round spray pattern with a 21 degree spray angle. Targets are misted with spray droplets to the point that the droplets coalesce to form a uniform thin film insufficient to drown test organisms.

[5] = system: Southern Armyworm; assay: Biological Method D: Foliar Insecticidal Activity Test, Southern Armyworm test; type: in vivo, Spodoptera eridania; parameters: key: I = inactive at concentration tested; conditions: compounds a-r
Experimental: as §1, §2, §3, §4
(§9) For the Mexican Bean Beetle and Southern armyworm tests, individual lima bean (Phaseolus limeniss var. Woods' Prolific) leaves were placed on moistened pieces of filter paper in Petri dishes. The leaves were then sprayed with the test solution using a rotating turntable and allowed to dry. The dishes were then infested with 10 third instar larvae of either the Mexican Been Beetle or the Southern Armyworm. The dishes were then covered. Percent mortality was determined for each species and spray concentration at 48 and 96 hours after treatment.
as §6, §7, §8

[6] = system: Green Peach Aphid; assay: Biological Method D: Foliar Insecticidal Activity Test, aphid test; type: in vivo, Myzus persicae; conditions: Myzus persicae, Green Peach Aphid
Experimental: as §1, §2, §3, §4, §5, §6, §7, §8

[7] = system: Southern Armyworm; assay: Biological Method D: Foliar Insecticidal Activity Test, Southern Armyworm test; type: in vivo, Spodoptera eridania; parameters: key: I = inactive at concentration listed
[8] = system: Boll Weevil; assay: Biological Method D: Foliar Insecticidal Activity Test, boll weevil test; type: in vivo, Anthonomous grandis; parameters: key: I = inactive at concentration listed
[9] = system: southern corn rootworm, Diabrotica undecimpunctata howardi; conditions: for foliar systemic nonagressive Method B crw % control at 0.56 kg/ha (0.5 lb/acre): percent control relative to infested check, from root damage ratings, 14 days post-spraying
[10] = system: southern corn rootworm, Diabrotica undecimpunctata howardi; assay: Biological Method A: Corn Rootworm Screening Test (treated non-aggressive soil); conditions: soil concentration giving 90% mortality, 10 days at 27°C
[11] = system: Boll Weevil; assay: Biological Method D: Foliar Insecticidal Activity Test, boll weevil test; type: in vivo, Anthonomous grandis; parameters: key: I = inactive at concentration tested; conditions: compounds a-r
Experimental: as §1, §2, §3, §4
For the boll weevil test, 10 adult weevils were placed in a 0.24 ℓ (0.5 pint) glass Mason jar containing a small cube of apple. The weevils were confined to the jar by fiberglass screen mesh secured by a screw-type rim cap. The jars were then sprayed with the test solution using a rotating turntable; directing the spray through the mesh into the jar. The percentage killed was determined after forty-eight and ninety six hours.
as §6, §7, §8

[12] = system: Southern Armyworm; assay: Biological Method D: Foliar Insecticidal Activity Test, Southern Armyworm test; type: in vivo, Spodoptera eridania; conditions: Spodoptera eridania, Southern Armyworm
Experimental: as §1, §2, §3, §4, §9, §6, §7, §8

[13] = foliar, compounds a-r, read-out: LC 50 TSM
[14] = foliar, 48 hrs, compounds a-r, read-out: LC 50 BB 48 hrs.
[15] = foliar, 96 hrs, compounds a-r, read-out: LC 50 BB 96 hrs.
[16] = Method D foliar test, read-out: LC50 TSM

| Compound | LC50 [1, 13] [µg/mL] | LC50 [2, 14] [µg/mL] | LC50 [2, 15] [µg/mL] | LC50 GPA [4] | LC50 AW 48 hrs [5] | LC50 AW 96 hrs [5] | LC50 ([6]; Method D foliar test) [µg/mL] | LC50 AW 48 hrs [7] | LC50 BW 48 hrs [8] | LC50 BW 96 hrs [8] | primary nonagressive Method A crw LC90 [10] [ppm] | LC50 BW 48 hrs [11] | LC50 BW 96 hrs [11] | further results |
| --- | --- | --- | --- | --- | --- | --- | --- | --- | --- | --- | --- | --- | --- | --- |
| CCOP(=O)(SC(C)CC)N(C)N(C)P(=S)(OC)OC (stereo not shown) [m] | 150 (≈ 412 µM) | 600 (≈ 1650 µM) | 38 (≈ 104 µM) | I | I | I | – | – | – | – | – | – | – | LC50 BW 48 hrs ([3]; 48 hrs): 740 ppm; LC50 BW 96 hrs [3]: 740 ppm |
| CCOP(=O)(NNP(=S)(OCC)OCC)OCC [Compound 2, reference compound] | – | – | – | – | – | – | 150 (≈ 468 µM) | I | I | I | 0.87 | – | – | LC50 [1, 16]: 540 µg/mL (≈ 1690 µM); LC50 AW 96 hrs [7]: I; foliar systemic nonagressive Method B crw % control at 0.56 kg/ha (0.5 lb/acre) [9]: 0% |
| CCOP(=S)(NN(C(=O)OC)P(=S)(OCC)OCC)OCC [o] | 150 (≈ 380 µM) | 52 (≈ 132 µM) | 45 (≈ 114 µM) | I | I | I | – | – | – | – | – | I | – | LC50 BW 96 hrs [3]: 740 ppm |
| CCOP(=S)(NN(C)P(=S)(OC)OC)OCC(C)(C)C (stereo not shown) [r] | – | – | – | I | I | I | – | – | – | – | – | – | – | – |
| CCOP(=S)(NNP(=S)(OCC)OCC)OCC [Compound 1, reference compound] | – | – | – | – | – | – | 500 (≈ 1490 µM) | I | I | I | 0.5 | – | – | LC50 TSM ([1]; Method D foliar test): I; LC50 ([12]; Method D foliar test, 96 hrs, read-out: LC50 AW 96 hrs): 500 µg/mL (≈ 1490 µM); foliar systemic nonagressive Method B crw % control at 0.56 kg/ha (0.5 lb/acre) [9]: 16% |
| CCCOP(=S)(NNP(=S)(OCC)SC(C)C)OCCC (stereo not shown) [Compound 23] | – | – | – | – | – | – | 150 (≈ 380 µM) | I | I | I | 0.55 | – | – | LC50 [1, 16]: 150 µg/mL (≈ 380 µM); LC50 ([2]; Method D foliar test, 48 hrs, read-out: LC50 BB 48 hrs.): 62 µg/mL (≈ 157 µM); LC50 ([2]; Method D foliar test, 96 hrs, read-out: LC50 BB 96 hrs): 78 µg/mL (≈ 198 µM); LC50 AW 96 hrs [7]: I; pest or weed control at 560 g/ha ([9]; Diabrotica undecimpunctata, in Zea mays, foliar, 336 h, read-out: foliar systemic nonagressive Method B crw % control at 0.56 kg/ha (0.5 lb/acre)): 16% |
| CCCOP(=S)(NN(C)P(=S)(OCC)OCC)OCC (stereo not shown) [c, N-(O,O-diethylthiophosphoryl) N′-(O-ethyl O-propylthiophosphoryl) N-methyl hydrazine] | 150 (≈ 412 µM) | 150 (≈ 412 µM) | 150 (≈ 412 µM) | – | – | – | – | – | – | – | – | I | I | LC50 ([6]; foliar, compounds a-r): 290 µg/mL (≈ 796 µM); LC50 ([12]; foliar, 48 hrs, compounds a-r, read-out: LC 50 AW 48 hrs.): 150 µg/mL (≈ 412 µM); LC50 ([12]; foliar, 96 hrs, compounds a-r, read-out: LC 50 AW 96 hrs.): 150 µg/mL (≈ 412 µM) |
| CCOP(=S)(NN(C)P(=S)(OCC)OC(C)C)OCC (stereo not shown) [q] | – | 300 (≈ 823 µM) | 72 (≈ 198 µM) | I | I | I | – | – | – | – | – | – | I | – |
| CCCOP(=S)(NN(C)P(=S)(OCC)OCC)OCCC [d] | 150 (≈ 396 µM) | 150 (≈ 396 µM) | 150 (≈ 396 µM) | I | I | I | – | – | – | – | – | I | I | – |
